For data set [1], the target named is T1, NMDA receptor (Mus musculus, UniProt P35438).
T1 construct: from tissue; host or cells: living mice (albino Swiss males for NMDA and PTZ tests, NMR females for MES)
Nature of the data set: Maximal electroshock (MES)-induced tonic convulsions. Format: in vivo. Particulars: i.p.; for ED50: mouse, ip, 0.25 h, read-out: MES ID50; for ED50 / MES ID50: 15 min before induction. How it is done: (§1) To assess NMDA receptor antagonistic properties of the tested agents by assessing anticonvulsive effects. Additionally the role of organic acid transporters in the elimination from the brain of tested agents was assessed by using an inhibitor, Probenicid, on the duration of anticonvulsive activity.
(§2) Male albino Swiss mice (19-21 g) housed 10-15 per cage were used for the NMDA lethality test (Leander et al., 1988). For pentylenetetrazol (PTZ)-induced convulsions male albino Swiss mice (25-34 g.) housed 40 per cage (58×38×20 cm) were used while in the maximal electroshock (MES) and motor impairment tests NMR female mice (18-28 g) housed 5 per cage were employed. All animals were kept with water and food ad libittum under a 12-h light-dark cycle (light on at 6 a.m.), and at a controlled temperature (20°±0.5° C.). All experiments were performed between 10 a.m. and 5 p.m. Tested agents were injected 15 min. i.p before the induction of convulsions if not stated otherwise (see below). Mrz 2/502 was dissolved in saline added with NaOH. Most other agents were dissolved in the following solution: 0.606 g Tris; 5.0 g. glucose; 0.5 g. Tween 80; and 95 ml water. The choline and tetramethylammonium salts were dissolved in distilled water.
(§3) MES (100 Hz, 0.5 sec shock duration, 50 mA shock intensity, 0.9 ms impulse duration, Ugo Basile) was applied through corneal electrodes. The presence of tonic convulsions was scored (tonic extension of hind paws with minimum angle to the body of 90°). In an additional experiment mice were injected with Probenicid (200 mg/kg) 30 min before administration of the tested agents to assess the role of organic acid transport in elimination (duration of action). The aim was to obtain ED50 s for all parameters scored using the Litchfield Wilcoxon (1949) test for quantal dose responses.

Data set [2] deals with T2, glycineB site of the NMDA receptor (rat cortical membranes) (Rattus norvegicus, UniProt P35439).
T2 construct: The cortex was dissected and homogenised in 20 volumes of ice-cold 0.32M sucrose; from tissue; host or cells: brain cortex membranes of male Sprague-Dawley rats
The data set is described as follows: [3H]5,7-DCKA binding assay. Particulars: 10 nM [3H]5,7-DCKA. The procedure: Tissue preparation was performed according to Foster and Wong (1987). Male Sprague-Dawley rats (200-250g) were decapitated and their brains were removed rapidly. The cortex was dissected and homogenised in 20 volumes of ice-cold 0.32M sucrose using a glass-Teflon homogenizer. The homogenate was centrifuged at 1000×g for 10 min. The pellet was discarded and the supernatant centrifuged at 20,000×g for 20 min. The resulting pellet was resuspended in 20 volumes of distilled water and centrifuged for 20 min at 8000×g. Then the supernatant and the buffy coat were centrifuged three times (48,000× g for 20 min) in the presence of 5 mM Tris-HCl, pH 7.4. All centrifugation steps were carried out at 4° C. After resuspension in 5 volumes of 5 mM Tris-HCl, pH 7.4 the membrane suspension was frozen rapidly at -80° C. until the day of assay. On the day of assay the membranes were thawed and washed four times by resuspension in 5 mM Tris-HCl, pH 7.4 and centrifugation at 48,000× g for 20 min. The final pellet was suspended in assay buffer.
The amount of protein in the final membrane preparation was determined according to the method of Lowry (1951) with some modifications (Hartfree, 1972). 50 μl of Protein samples (in triplicates) were diluted to 1 ml with distilled water and treated with 0.9 ml of a solution containing 2 g potassium sodium tartrate and 10 g Na2 CO3 in 500 ml 1N NaOH and 500ml water. Blank and standard (with bovine serum albumin) were set up in the same way. The tubes were placed in a water bath at 50° C. for 10 min. and cooled at room temperature. 100 μl of a solution containing 2 g potassium sodium tartrate and 1 g CuSO4 x 5 H2 O in 90 ml water and 10 ml 1N NaOH were added. The samples were left at room temperature for at least 10 min., then 3 ml of Folin-Ciocalteu reagent (1 ml of reagent diluted with 15 ml water) was added rapidly during mixing. The tubes were again heated at 50° C. for 10 min. and cooled to room temperature. Absorbencies were then read in 1 cm cuvets at 650 nm. The final protein concentration used for our studies was between 100 and 250 μg/ml.
Incubation in both binding assays was terminated using a Millipore filter system. The samples, all in triplicate, were rinsed three times with 2.5 ml ice cold assay buffer over glass fibre filters obtained from Schleicher & Schuell under a constant vacuum. Following separation and rinse the filters were placed into scintillation liquid (5 ml; Ultima Gold) and radioactivity retained on the filters was determined by using conventional liquid scintillation counter (Hewlett Packard, Liquid Scintillation Analyser). `Total binding` was the absolute amount of radioligand bound in the absence of any additives whereas `non-specific` binding was determined in the presence of a high concentration of competitor.
[^3 H]5,7-DCKA binding assay
Experiments were performed according to the methods modified from previous groups (Canton et al., 1991; Yoneda et al., 1993). Membranes were suspended and incubated in 10 mM Tris-HCl, pH 7.4. Incubation time was 45 min at 4° C. Non-specific binding of [^3 H]5,7-DCKA was defined by the addition of unlabeled glycine at 0.1 mM. The stop-solution contained 10 mM Tris-HCl and 10 mM magnesium sulphate, pH 7.4. Filtration was performed as rapidly as possible. Displacement experiments were performed with a fixed [^3 H]5,7-DCKA concentration of 10 nM. Test compounds were diluted in water or DMSO and added in at least 5 different concentrations.

Data set [3] deals with T1, NMDA receptor. The data set is described as follows: NMDA-induced convulsions / lethality test. Format: in vivo. Particulars: ip, 0.25 h, i.p., 15 min before induction, read-out: NMDA ID50. How it is done:
as §1, §2
In the NMDA-induced convulsions test in mice, a dose-response relationship for NMDA was first performed to determine the ED97 dose which was then used for testing of antagonistic properties. After injection of the ED97 dose of NMDA the animals were placed in a small cage (20×28×14 cm) and observed for 20 min. Death preceded by clonic convulsions and by tonic seizures was the pharmacological end-point.

Data set [4] has as its target T3, NMDA receptor (Rattus norvegicus, UniProt P35439).
T3 construct: endogenous in cells
The data set is described as follows: Patch clamp, inward currents to NMDA in cultured superior colliculus neurones. It counts as cell-based. As to conditions: NMDA 200 μM, glycine 1 μM. How it is done:
Cells were mechanically dissociated in 0.05% DNAase / 0.3% ovomucoid (Sigma) following a 15 minute pre-incubation with 0.66% trypsin / 0.1% DNAase (Sigma). The dissociated cells were then centrifuged at 18G for 10 minutes, resuspended in minimum essential medium (Gibco) and plated at a density of 200,000 cells cm onto poly-L-lysine (Sigma)-precoated plastic petri dishes (Falcon). The cells were nourished with NaHCO3 /HEPES-buffered minimum essential medium supplemented with 5% foetal calf serum and 5% horse serum (Gibco) and incubated at 37° C. with 5%CO2 at 95% humidity. The medium was exchanged completely following inhibition of further glial mitosis with cytosine-β-D-arabinofuranoside (20 μM Sigma) after about 7 days in vitro. Thereafter the medium was exchanged partially twice weekly. […] Moreover, the relatively small neurones (soma 15-20 μm .phi.) are ideally suited to minimise problems of buffered diffusion for concentration clamp experiments.
Patch clamp recordings were made from these neurones with polished glass electrodes (4-6 m.OMEGA.) in the whole cell mode at room temperature (20°-22° C.) with the aid of an EPC-7 amplifier (List). Test substances were applied by switching channels of a custom made fast superfusion system with a common outflow (10-20 ms exchange times). The contents of the intracellular solution were as follows (mM): CsCl (120), TEACl (20), EGTA (10), MgCl2 (1), CaCl2 (0.2), glucose (10), ATP (2), cAMP (0.25); pH was adjusted to 7.3 with CsOH or HCl. The extracellular solutions had the following basic composition (mM): NaCl (140), KCl (3), CaCl2 (0.2), glucose (10), HEPES (10), sucrose (4.5), tetrodotoxin (TTX 3*10-4). For most experiments glycine (1 μM) was present in all solutions. Experiments to test the glycine-dependence of the tricyclic "pyrido-phtalazin diones" were performed in the continuous presence of increasing concentrations of glycine (1-10 μM).
This effect was mediated at the glycineB site as evidenced by the parallel shift in the concentration-response curves in the presence of increasing glycine concentrations. Thus the Kbs of Mrz 2/502 as assessed according to the Cheng-Prusoff relationship were similar in glycine 1, 3 and 10 μM (80, 124 and 118 nM respectively). […] Choline derivatives had similar potencies to the free acids in vitro (Table14b).
(In general: Patch clamp records ionic current or voltage across a cell membrane.)

For data set [5], the target named is T1, NMDA receptor. The data set is described as follows: Pentylenetetrazol (PTZ)-induced convulsions. Format: in vivo. As to conditions: ip, 0.25 h, i.p., PTZ 90 mg/kg i.p., read-out: PTZ ID50. The procedure:
as §1, §2
Pentylenetetrazol was injected at a dose of 90 mg/kg (i.p). The presence of general tonic convulsions was then scored for 30 min as this parameter is more sensitive to NMDA receptor antagonists than clonic convulsions. The pharmacological end-point was taken as the presence of tonus in the hind limbs with stretching.

A short description of data set [6]: In vivo systemic and / or CNS availability.
Data set [7] has as its target T3, NMDA receptor. Nature of the data set: Microelectrophoretic application of NMDA to spinal neurones in vivo. As to conditions: rat, iv, responses of single rat spinal neurones; read-out: Microelectrophoretic NMDA ID50. The procedure: (§4) The ability of these glycineB antagonists to act as NMDA receptor antagonists in vivo was assessed using i.v. administration against responses of single neurones in the rat spinal cord to microelectrophoretic application of AMPA and NMDA.

The next data set concerns AMPA. The data set is described as follows: Microelectrophoretic application of AMPA to spinal neurones in vivo. Particulars: i.v., responses of single rat spinal neurones. How it is done: as §4
The test system of the next data set is organic acid transport. The data set is described as follows: Duration of anticonvulsive action with and without probenecid. Format: in vivo, mouse. As to conditions: listed as 2/570. The procedure: as §1, §2, §3
Moreover it seems that choline salts have a longer duration of action. Probenecid injection prolonged considerably the duration of anticonvulsive action of all agents tested. For example the half lives of 2/514 and 2/570 were around 40 and 80 minutes respectively in the absence of probenicid. In the presence of probenicid the half lives were prolonged to around 180 and 210 minutes respectively. Thus, it seems that organic acids transport in the choroid plexus out of the brain plays an important role in the short duration of action of the compounds tested..

Where [8] appears, read: peak currents, read-out: Peak NMDA IC50.
The mark [9] stands for this setting: plateau (steady-state) currents, read-out: Plateau NMDA IC50.

The record followed here is patent US5776935A, “Pyrido-phtalazin diones and their use against neurological disorders associated with excitotoxicity and malfunctioning of glutamatergic neurotransmission” (Merz & Co. GmbH & Co., priority 1996, dated 1998).

Structures can show the parent of a compound that is named as a salt. Where two headings read alike, the source gives them in different places. Bounds are passed on as bounds.

Turning to `O=c1[nH]nc(O)c2c1cc1cc(Cl)c(Cl)cc1[n+]2[O-]` [Mrz 2/518, 7,8-dichloro-4-hydroxy-1-oxo-1,2-dihydropyridazino-[4,5-b]-quinoline 5-oxide], the ED50 was > 60 mg/kg on NMDA receptor [1] and > 100 mg/kg on NMDA receptor [3]. Besides, the values for the 50% inhibitory concentration (IC50) (in [2]; at NMDA receptor [4] (setting [8]); at NMDA receptor [4] (setting [9])) were 0.65 µM, 3.8 µM and 0.8 µM, respectively.
Turning to `O=c1[nH]nc(O)c2c1cc1ccccc1[n+]2[O-]` [Mrz 2/499, 4-hydroxy-1-oxo-1,2-dihydro-pyridazino[4,5-b]-quinoline 5-oxide], on NMDA receptor [5], the ED50 was found to be 18.6 mg/kg. The “activity in the MES test” value on NMDA receptor [1] is listed as “effective”. On NMDA receptor [1] (listed as 499, 15 min), the “MES ID50” value turned out to be 87.0 mg/kg. Also, in [6], the “in vivo systemic and / or CNS availability versus associated class I compounds” value is listed as “much better”. Also, the figures for the IC50 (in [2]; at NMDA receptor [4] (setting [8]); at NMDA receptor [4] (setting [9])) were 16 µM, 51.2 µM and 13.8 µM, respectively.
With `O=c1[nH][nH]c(=O)c2nc3cc(Br)c(Cl)cc3cc12` [Mrz 2/538], the ED50 on NMDA receptor [5] was > 100 mg/kg; on NMDA receptor [1], > 60 mg/kg; on NMDA receptor [3], 106 mg/kg. Further, the half-inhibitory concentration (IC50) at NMDA receptor [4] (setting [8]) worked out at 93.9 µM; on NMDA receptor [4] (setting [9]), 2.5 µM.
On to `O=c1[nH]nc(O)c2c1cc1cc(Br)ccc1[n+]2[O-]` [Mrz 2/570, 8-bromo-4-hydroxy-1-oxo-1,2-dihydropyridazino[4,5-b]-quinoline 5-oxide choline salt], for which, at NMDA receptor [7], the ED50 came out at 4.5 mg/kg. In addition, the “MES ID50” value on NMDA receptor [1] (listed as 570, 15 min) was 12.8 mg/kg. Besides, in the data set with AMPA, the “Microelectrophoretic AMPA ID50” value was > 16.0 mg/kg. The “half life of anticonvulsive action” value in the data set on organic acid transport (absence of probenecid) is ~1.33 h; in the data set on organic acid transport (presence of probenecid 200 mg/kg, 30 min before), ~3.5 h. The half-maximal inhibitory concentration (IC50) was determined as 0.6 µM at NMDA receptor [4] (setting [8]) and 0.1 µM on NMDA receptor [4] (setting [9]).
Consider `O=c1[nH][nH]c(=O)c2nc3cc(Cl)c(Br)cc3cc12` [Mrz 2/539], for which the ED50 is > 100 mg/kg on NMDA receptor [5], > 60 mg/kg at NMDA receptor [1] and > 100 mg/kg on NMDA receptor [3]. For the same compound, the IC50 on NMDA receptor [4] (setting [8]) came out at 5.3 µM; on NMDA receptor [4] (setting [9]), 0.7 µM.
In the case of `O=c1[nH][nH]c(=O)c2nc3ccccc3cc12` [Mrz 2/585], the ED50 is 59 mg/kg at NMDA receptor [5], > 100 mg/kg on NMDA receptor [1] and 58.9 mg/kg at NMDA receptor [3]. Besides, the figures for the half-inhibitory concentration (IC50) at NMDA receptor [4] (setting [8]) and on NMDA receptor [4] (setting [9]) were 65.9 µM and 19.1 µM, respectively.

The term IC50 denotes the point on the concentration scale where inhibition reaches its midpoint.
